Results reported in patent US5104859A, “Continuous administration of adenosine to reduce pulmonary vascular resistance” (priority 1990, dated 1992).
Entries after “also recorded” stand apart in the source; their conditions may differ.

Key:
[1] = system: coronary bypass grafts; assay: Coronary bypass graft flow and hemodynamics during coronary artery surgery
Protocol: It has been reported that coronary artery grafts occlude more frequently during the postoperative period when low graft-flow values are obtained during surgery. See Groudin et al, Circulation, 42: Suppl 3: 106-111 (1970).
In a study designed to investigate the use of adenosine to inhibit occlusion of coronary grafts, nine patients (age 45-65, all taking beta-blockers) were studied during coronary artery surgery. After premedication, morphine (10-15 mg) and scopolamine (0.4-0.6 mg), anesthesia was induced by fentanyl (30 mcg/kg.b.w.). Pancuronium (0.1 mg/kg b.w.) was given to facilitate endotracheal intubation. Anesthesia was maintained with fentanyl 0.5 mg/hour, N2 O (50%) in oxygen and droperidol (0.1 mg/kg b.w.). During bypass thiomebumal (5 mg/kg b.w.) was given. Nitrous oxide was not used after bypass. Extracorporeal circulation (ECC) was performed with a roller pump and a Shiley bubble oxyqenator primed with crystalloid solution. ECG (modified V5), an arterial line and a Swan-Ganz Catheter were used for monitoring and for hemodynamic measurements. Blood flow in bypass grafts (n=15, internal mammary and venous grafts), was measured with appropriate sized square wave electromagnetic flow probes (Nycotron 732). The study was performed 20-30 minutes after the termination of ECC. After a control period (5 min), adenosine (5.3 mg/ml. clinical solution) was continuously infused in a central vein in order to induce approximately 10% reduction of mean arterial blood pressure (about 30 to 50 ug per kg. per min.). Graft flow was continuously measured before and during a 10 or 30 minute infusion of adenosine and finally during the following 5 minute control period. Data are expressed as mean ±SEM and differences were tested with Student's paired t-test against the preceding period.

[2] = Plasma adenosine and metabolite concentrations during cardiopulmonary bypass (HPLC); settings: in vivo; for concentration: human, iv
Protocol: In six cases the plasma adenosine levels were determined by high performance liquid chromatography (HPLC) (Fredholm and Sollevi, J. Physiol. (London), 313: 351-67 (1981) in arterial and in venous (venous lines to the oxygenator) blood. The adenosine metabolites inosine, hypoxanthine and uric acid were also determined by HPLC. The samples were collected as previously described (Sollevi, Acta. Physiol. Scand., 121: 165-72 (1984) at the intervals of 10, 20, 40 and 80 minutes during CPB and 20 minutes after CPB.
Statistical significance (controls v. adenosine group) was determinted with Student's t-test for unpaired data. For significance within the groups the Wilcoxon Rank Sum test was used. p […] 0.05 was regarded as significant.

[3] = system: cardiac output; assay: Cardiac output; assay type: in vivo, human; settings: for cardiac output and heart work (words): intravenous infusion
Text: This is in contrast to other vasodilators, such as sodium nitroprusside, which may reduce cardiac output, depending on the hemodynamic status of the patient. As a consequence, adenosine can be used to stimulate cardiac output in patients with low cardiac output states, due, for example, to heart surgery, infarct and the like.
For this application, effective dosages are intermediate those used for increased graft flow and controlled hypotension. Typically the effective dose is of the order of 40-80 ug/kg/per minute. The duration of treatment can be as long as required to support the heart.

[4] = human, in vivo

Nc1ncnc2c1ncn2[C@@H]1O[C@H](CO)[C@@H](O)[C@H]1O [adenosine]
graft blood flow, post-operative low dose ([1]; 0.02 to 0.05 mg/kg/min, words): increase graft blood flow
graft flow ([1]; 30-50 ug per kg per min): doubled graft flow; also recorded: marked and reproducible increase in graft flow
myocardial work ([1]; 30-50 ug per kg per min): without increased myocardial work
arrhythmias ([1]; 49±4 ug/kg/minute): No arrhythmias were observed
heart rate, mean pulmonary artery pressure, central venous pressure, stroke index and left ventricular stroke work index ([1]; 49±4 ug/kg/minute): remained essentially unchanged
increase of cardiac output ([1]; 49±4 ug/kg/minute): 12%
reduction of mean arterial pressure ([1]; 49±4 ug/kg/minute): 12%
Cardiac output ([1]; control after adenosine): 5.3 ± 0.3 L/min
Left Ventricular Stroke Index ([1]; control after adenosine): 0.49 ± 0.04 Joule/n^2
Mean Arterial Pressure ([1]; control after adenosine): 85 ± 3 mmHg
Pulmonary Artery Pressure (mean) ([1]; control after adenosine): 19.9 ± 1.0 mmHg
RAP (mean) ([1]; control after adenosine): 5.8 ± 0.7 mmHg
Stroke Index ([1]; control after adenosine): 39.6 ± 2.5 ml/m^2
heart rate ([1]; control after adenosine): 81 ± 6 beats/min.
graft flow ([1]; control after adenosine, n = 15): 39 ± 5 mL/min
Cardiac output ([1]; during adenosine): 5.6 ± 0.3 L/min
Left Ventricular Stroke Index ([1]; during adenosine): 0.41 ± 0.03 Joule/n^2
Mean Arterial Pressure ([1]; during adenosine): 74 ± 3 mmHg
Pulmonary Artery Pressure (mean) ([1]; during adenosine): 18.8 ± 1.2 mmHg
RAP (mean) ([1]; during adenosine): 5.3 ± 0.4 mmHg
Stroke Index ([1]; during adenosine): 38.8 ± 2.0 ml/m^2
heart rate ([1]; during adenosine): 82 ± 15 beats/min.
graft flow ([1]; during adenosine, n = 15): 77 ± 7 mL/min
graft flow rate on termination of adenosine ([1]; in vivo): restored to its original value
atrio-ventricular conductance at low dose ([1]; post-operative low doses, words): without significant effect on atrio-ventricular conductance
concentration [2]: 2000 to 10000 nM
concentration ([2]; 20 min): 400 ± 100 nM
Arterial concentration [2]: 0.3 ± 0.1 µM
arterial levels [2]: approximately doubled
cardiac output on termination of adenosine ([3]; 40-80 ug/kg/per minute): frequently remains above the cardiac output prior to treatment
cardiac output and heart work (words) [3]: increase cardiac output without increasing heart work
cardiac output and heart work (words) ([3]; listed as Adenosine): significantly increasing cardiac output without significantly increasing cardiac work
symptoms in awake patient at higher doses [4]: facial flushing, neck and chest oppression, palpitation and increased rate of respiration
